Test results: patent US12043625B2, “Pyridine derivatives with c-linked cyclic substituents as cGAS inhibitors” (BOEHRINGER INGELHEIM INTERNATIONAL GMBH, priority 2021, dated 2024)
pIC50: −log10 of the molar value.

Tests used:
[1] = tested on: IFN induction in cGAMP-stimulated THP1 cells; test: cGAMP stimulated counter cell assay, THP1-Dual cells, Lucia luciferase reporter (THP1(cGAMP) IC50); format: cell-based; conditions: Homo sapiens, THP-1, THP1-Dual cells stimulated with 10 μM cGAMP;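 note: IRF-driven Lucia luciferase luminescence after 18 h at 37° C, compound series topping at 10 µM with 1% DMSO, unstimulated wells as 0% and DMSO wells as 100%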
Source text: 6.2 Method: Human cGAS Cell Assay and cGAMP Stimulated Counter Cell Assay (THP1(vir) IC50 and THP1(cGAMP) IC50)
THP1-Dual™ cells (InvivoGen #thpd-nfis) expressing IRF dependent Lucia luciferase reporter were used as basis for both assays.
(§1) For the counter assay, cells were stimulated by cGAMP (SigmaAldrich #SML1232) to activate the identical pathway independent and directly downstream of cGAS (measurement of THP1(cAMP) IC50). Pathway activity was monitored by measuring the Lucia luciferase activity induced by either DNA stimulated cGAS enzyme activity (measurement of THP1^(vir) IC50) or by cGAMP directly (measurement of THP1(cAMP) IC50, counter assay).
Compounds were delivered in 10 mM DMSO solution, serially diluted and transferred to the 384 well assay plate (Greiner #781201) using an Echo acoustic dispenser. Typically, 8 concentrations were used with the highest concentration at 10 μM in the final assay volume followed by ˜1:5 dilution steps. DMSO concentration was set to 1% in the final assay volume. The 384 well assay plate contained 21 test compounds (column 1-22), and DMSO in column 23 and 24.
(§2) 30 μL of the cell/virus-mix were added to each well of the compound plate from column 1-23 via MultiDrop Combi dispenser (5000 cells/well). In column 24, 30 μl/5000 cells/well without virus were added as a low control.
(§3) The plates were then incubated for 18 h at 37° C. in a humidified incubator.
(§4) Following that, 15 μL of QuantiLuc detection reagent (InvivoGen #rep-qlcg5) were added to each well using a MultiDrop Combi. Measurement was done immediately after the addition using an EnVision reader (US-luminescence read-mode).
Data Evaluation and Calculation:
(§5) For data evaluation and calculation, the measurement of the low control was set as 0% control and the measurement of the high control was set as 100% control. The IC50 values were calculated using the standard 4 parameter logistic regression formula. Calculation: [y=(a−d)/(1+(x/c)^b)+d], a=low value, d=high value; x=conc M; c=1C50 M; b=slope

[2] = tested on: IFN induction in virus-stimulated THP1 cells; test: Human cGAS cell assay, baculovirus-stimulated THP1-Dual cells, Lucia luciferase reporter (THP1(vir) IC50); format: cell-based; conditions: Homo sapiens, THP-1;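 note: IRF-dependent luminescence, 8 concentrations up to 10 µM in 1% DMSO, 0% = unstimulated cells, 100% = DMSO plus virus, counter assay stimulated with cGAMP downstream of cGAS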
Source text: THP1-Dual™ cells (InvivoGen #thpd-nfis) expressing IRF dependent Lucia luciferase reporter were used as basis for both assays. For the detection of cellular cGAS activity cells were stimulated by a baculovirus (pFastbac-1, Invitrogen, no coding insert) infection that delivers the cGAS enzyme stimulating double-stranded DNA (measurement of THP1(vir) IC50).
as §1
Typically, 8 concentrations were used with the highest concentration at 10 μM in the final assay volume followed by ˜1:5 dilution steps. DMSO concentration was set to 1% in the final assay volume. The 384 well assay plate contained 21 test compounds (column 1-22), and DMSO in column 23 and 24.
The baculovirus solution was then added 1:200 (may have varied according to virus batch) to the cells (measurement of THP1(vir) IC50).
as §2, §3, §4
Data Evaluation and Calculation:
as §5

[3] = tested on: IFN induction in dsDNA-stimulated human whole blood; test: Human whole blood assay, dsDNA transfection, IFNα2a production (hWB IC50); format: cell-based;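 note: cGAS pathway activity, IFNα2a in plasma by MSD immunoassay after 22 h at 37 °C, 8 concentrations up to 10 µM in 0.1% DMSO, DMSO controls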
Procedure: For the detection of cellular cGAS activity human whole blood was stimulated by transfection with double stranded DNA. Pathway activity was monitored by measuring the IFNα2α production.
Typically, 8 concentrations were used with the highest concentration at 10 μM in the final assay volume followed by ˜1:5 dilution steps. DMSO concentration was set to 0.1% in the final assay volume. The 96-well assay plate contained 10 test compounds, and DMSO in control wells.
Whole blood was kept at room temperature for a maximum of 3 hours after collection until use in the assay.
160 μl of the whole blood samples was transferred to each well of the 96-well assay plates filled with compound/OptiMEM. All assay plates were prepared as duplicates with blood from different donors. Blood plates were kept at room temperature for 60 minutes and continuous shaking with 450 rpm, covered with the lid, but not sealed.
20 μl OptiMEM and 9.6:1 Fugene was added to all low control wells.
After covering assay plates with aera seals and the lid, blood plates were kept at room temperature for 30 minutes and continuous shaking with 450 rpm, followed by an overnight incubation of 22 h at 37° C. in the incubator, without shaking.
U-Plex MSD GOLD 96-well Small Spot Strepavidin SECTOR Plates (Meso Scale Diagnostics #L45SA-5) were coated with 25 μl diluted capture antibody. Coated plates were incubated for 60 min at room temperature under continuous shaking at 700 rpm. MSD IFNα-2a plates were washed three times with 150 μl wash buffer (1×HBSS, 0.05% Tween).
After blocking the plates with 100 μl block solution/well (1×HBSS with 0.2% Tween, 2% BSA) for 60 min at room temperature and continuous shaking at 700 rpm, plates were emptied as dry as possible by dumping just before continuing with the human plasma.
Whole Blood assay plates were centrifuged at 1600 rpm for 10 minutes. 25 μl of supernatant was transferred with a pipetting robot from each whole blood plate to the corresponding IFNα-2a plate.
Plates were sealed with microplate seals and kept at room temperature again under continuous shaking at 700 rpm for two hours.
Next MSD IFNα-2a plates were washed three times with 150 μl wash buffer (1×HBSS, 0.05% Tween), before adding 25 μl MSD SULFO-TAG IFNα-2a Antibody solution (1:100 diluted in Diluent 3 (Meso Scale Diagnostics #R50AP-2) to each well of the plates.
Afterwards plates were sealed with microplate seals and kept at room temperature again under continuous shaking at 700 rpm for two hours. Finally, MSD IFNα-2α plates were washed three times with 150 μl wash buffer (1×HBSS, 0.05% Tween). 150 μl 2× Read buffer was added to each well and plates were immediately measured with the MSD Sector S600 Reader using the vendor barcode.
For data evaluation and calculation, % control calculation of each well was based on the mean of high (DNA stimulated control) and mean of low (unstimulated control) controls by using the following formula: [counts(sample)−counts(low))/(counts(high)−counts(low))]*100
The IC50 values were calculated using the standard 4 parameter logistic regression formula. Calculation: [y=(a−d)/(1+(x/c)^b)+d], a=low value, d=high value; x=conc M; c=1C50 M; b=slope

cGAS = conditions: as disclosed on page 45 of WO 2020/142729; read-out: biochemical (in vitro) IC50-value group; cited from earlier work

Cc1nc(N2C[C@@H](Cc3nn[nH]n3)C[C@H]2C(=O)O)c2oc3ccccc3c2n1 [Example 25, reference compound]
pIC50 [1]: < 4.77 | pIC50 [2]: 4.77 | pIC50 ([2]; baculovirus-stimulated THP1-Dual cells, 18 h): < 4.77 | pIC50 [3]: < 5.00 | pIC50 (cGAS): > 7.00
